The values below come from US7202261B2, “Calcilytic compounds” (NPS Pharmaceuticals, Inc., priority 1996, dated 2007).

Counter-ions that a name gives are not always drawn.

The first test has as its target T1, human calcium receptor (Homo sapiens, UniProt P41180).
T1 construct: expressed in transfected cells
T1 sequence (P41180 20-1078): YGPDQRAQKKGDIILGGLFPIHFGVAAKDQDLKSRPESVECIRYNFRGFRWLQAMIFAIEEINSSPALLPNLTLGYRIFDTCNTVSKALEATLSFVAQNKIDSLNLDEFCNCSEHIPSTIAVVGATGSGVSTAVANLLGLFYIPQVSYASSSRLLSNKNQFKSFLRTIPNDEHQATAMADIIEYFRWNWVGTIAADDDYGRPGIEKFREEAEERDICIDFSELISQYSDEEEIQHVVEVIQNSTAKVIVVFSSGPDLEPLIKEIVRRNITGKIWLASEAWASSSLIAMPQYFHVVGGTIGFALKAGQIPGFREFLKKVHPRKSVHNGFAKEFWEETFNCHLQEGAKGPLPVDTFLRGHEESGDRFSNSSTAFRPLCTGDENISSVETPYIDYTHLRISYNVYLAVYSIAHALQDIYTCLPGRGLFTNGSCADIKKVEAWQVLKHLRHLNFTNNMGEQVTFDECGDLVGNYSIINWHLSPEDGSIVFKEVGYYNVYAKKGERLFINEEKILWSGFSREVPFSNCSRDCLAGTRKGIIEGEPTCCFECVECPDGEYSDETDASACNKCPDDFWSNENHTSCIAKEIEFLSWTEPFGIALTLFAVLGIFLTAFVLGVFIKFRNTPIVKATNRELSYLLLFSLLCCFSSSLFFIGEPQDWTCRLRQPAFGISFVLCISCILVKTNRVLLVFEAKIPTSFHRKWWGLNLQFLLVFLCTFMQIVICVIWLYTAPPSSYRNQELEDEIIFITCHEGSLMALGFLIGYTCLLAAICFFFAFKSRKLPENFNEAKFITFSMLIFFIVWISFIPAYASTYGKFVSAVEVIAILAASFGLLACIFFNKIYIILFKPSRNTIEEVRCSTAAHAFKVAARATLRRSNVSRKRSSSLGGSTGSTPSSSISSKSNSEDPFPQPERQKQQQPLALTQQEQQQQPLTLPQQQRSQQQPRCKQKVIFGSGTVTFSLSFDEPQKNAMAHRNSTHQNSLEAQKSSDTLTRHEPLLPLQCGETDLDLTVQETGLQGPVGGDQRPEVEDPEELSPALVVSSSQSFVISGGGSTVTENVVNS
Put plainly: Calcium Receptor Inhibitor Assay. It counts as cell-based.
Conditions: not given
The protocol:
This example illustrates the use of the Calcium Receptor Inhibitor Assay. […] Res. 10 Suppl. […] Intracellular Ca^2+ was measured using fluo-3, a fluorescent calcium indicator.
The procedure was as follows:
1. Cells were maintained in T-150 flasks in selection media (DMEM supplemented with 10% fetal bovine serum and 200 μg/mL hygromycin B), under 5% CO2:95% air at 37° C. and were grown up to 90% confluency.
2. The medium was decanted and the cell monolayer was washed twice with phosphate-buffered saline (PBS) kept at 37° C. After the second wash, 6 mL of 0.02% EDTA in PBS was added and incubated for 4 minutes at 37° C. Following the incubation, cells were dispersed by gentle agitation.
3. Cells from 2 or 3 flasks were pooled and pelleted (100×g). The cellular pellet was resuspended in […] of SPF-PCB+ and pelleted again by centrifugation. This washing was done twice.
SPF-PCB was made up and stored at 4° C. On the day of use, SPF-PCB was supplemented with 1 mg/mL of D-glucose and 1 mM CaCl2 and then split into two fractions. To one fraction, bovine serum albumin (BSA; fraction V, ICN) was added at 5 mg/mL (SPF-PCB+). This buffer was used for washing, loading and maintaining the cells. The BSA-free fraction was used for diluting the cells in the cuvette for measurements of fluorescence.
5. Following the incubation period, the cells were pelleted by centrifugation. The resulting pellet was washed with SPF-PCB+. After this washing, cells were resuspended in SPF-PCB+ at a density of 1–2×10^6 cells/mL.
6. For recording fluorescent signals, 300 μL of cell suspension were diluted in 1.2 mL of SPF buffer containing 1 mM CaCl2 and 1 mg/mL of D-glucose. Measurements of fluorescence were performed at 37° C. with constant stirring using a spectrofluorimeter. […] To calibrate fluorescence signals, digitonin (5 mg/mL in ethanol) was added to obtain Fmax, and the apparent Fmin was determined by adding Tris-EGTA (2.5 M Tris-Base, 0.3 M EGTA).
7. To determine the potential calcilytic activity of test compounds, cells were incubated with test compound (or vehicle as a control) for 90 seconds before increasing the concentration of extracellular Ca^2+ from 1 to 2 mM. Calcilytic compounds were detected by their ability to block, in a concentration-dependent manner, increases in the concentration of intracellular Ca^2+ elicited by extracellular Ca^2+.
As usually defined, the IC50 is the midpoint of a concentration-inhibition curve. As for `CCCCCCCCOCC(O)CNC(C)(C)Cc1ccc(OC)cc1` (stereo not shown) [Compound 65, N-(2-Hydroxy-3-octanoxypropyl)-1,1-dimethyl-2-(4-methoxyphenyl)ethylamine], the IC50 was < 1 µM.
`CCCCCCOCC(O)CNC(C)(C)Cc1ccc(OC)cc1` (stereo not shown) [Compound 66, N-(2-Hydroxy-3-hexanoxypropyl)-1,1-dimethyl-2-(4-methoxyphenyl)ethylamine]: the IC50 was < 10 µM.
For `COc1ccc(CC(C)(C)NCC(O)CSc2ccccc2)cc1` (stereo not shown) [Compound 68, N-(2-Hydroxy-3-thiophenylpropyl)-1,1-dimethyl-2-(4-methoxyphenyl)ethylamine], the IC50 was < 10 µM.
Turning to `CCCCCCCCC(O)CNC(C)(C)Cc1ccc(OC)cc1` (stereo not shown) [Compound 69, N-(2-Hydroxydecanyl)-1,1-dimethyl-2-(4-methoxyphenyl)ethylamine], the IC50 is < 1 µM.
For the compound `CCCCCCCCCCC(O)CNC(C)(C)Cc1ccc(OC)cc1` (stereo not shown) [Compound 70, N-(2-Hydroxydodecanyl)-1.1-dimethyl-2-(4-methoxyphenyl)ethylamine], the IC50 is > 50 µM.
Same read-out and setting: in the case of `C=CCCCCCCC(O)CNC(C)(C)Cc1ccc(OC)cc1` (stereo not shown) [Compound 71, N-(2-Hydroxydec-9-enyl)-1,1-dimethyl-2-(4-methoxyphenyl)ethylamine] it was < 10 µM.

The same test, now with this note: HEK 293 4.0–7 cells stably expressing the human calcium receptor; fluo-3; read-out: IC50 for blocking increases of intracellular Ca2+ elicited by extracellular Ca2+.
Regarding `COc1ccc(CC(C)(C)NCC(O)COc2ccccc2F)cc1` (stereo not shown) [Compound 41, N-[2-Hydroxy-3-(2-fluorophenoxy)propyl]-1.1-dimethyl-2-(4-methoxyphenyl)ethylamine Hydrochloride], the IC50 was < 10 µM.
Still for that read-out and setting: in the case of `COc1ccc(CC(C)(C)NCCCOc2cccc3ccccc23)cc1` [Compound 42, N-(3-(1-napthoxy)propyl)-1,1-dimethyl-2-(4-methoxyphenyl)] it was < 50 µM; in that of `COc1ccc(CC(C)(C)NCC(O)COc2cccc(Cl)c2)cc1` (stereo not shown) [Compound 43, N-[2-Hydroxy-3-(3-chlorophenoxy)propyl]-1,1-dimethyl-2-(4-methoxyphenyl)ethylamine Hydrochloride], < 1 µM; in that of `COc1ccc(CC(C)(C)NCC(O)COc2ccc(F)cc2)cc1` (stereo not shown) [Compound 44, N-[2-Hydroxy-3-(4-fluorophenoxy)propyl]-1,1-dimethyl-2-(4-methoxyphenyl)ethylamine Hydrochloride], < 1 µM.
For the compound `COc1ccc(CC(C)(C)NCC(O)COc2cccc(C)c2)cc1` (stereo not shown) [Compound 45, N-[2-Hydroxy-3-(3-methylphenoxy)propyl]-1,1-dimethyl-2-(4-methoxyphenyl)ethylamine Hydrochloride], the IC50 was < 10 µM.
Still for that read-out and setting: in the case of `COc1ccc(CC(C)(C)NCC(O)COc2cccc(C(F)(F)F)c2)cc1` (stereo not shown) [Compound 46, N-[2-Hydroxy-3-(3-trifluoromethylphenoxy)propyl]-1,1-dimethyl-2-(4-methoxyphenyl)ethylamine Hydrochloride] it was < 1 µM; in that of `COc1ccc(CC(C)(C)NCC(O)COc2ccccc2C(F)(F)F)cc1` (stereo not shown) [Compound 47, N-[2-Hydroxy-3-(2-trifluoromethylphenoxylpropyl]-1,1-dimethyl-2-(4-methoxyphenyl)ethylamine Hydrochloride], < 1 µM.
`COc1ccc(CC(C)(C)NCC(O)COc2ccccc2C(C)(C)C)cc1` (stereo not shown) [Compound 48, N-[2-Hydroxy-3-(2-t-butylphenoxy)propyl]-1,1-dimethyl-2-(4-methoxyphenyl)ethylamine Hydrochloride]: the IC50 is < 10 µM.
Same read-out and setting: under `COc1ccc(CC(C)(C)NCC(O)COc2ccccc2OC)cc1` (stereo not shown) [Compound 49, N-[2-Hydroxy-3-(2-methoxyphenoxy)propyl]-1,1-dimethyl-2-(4-methoxyphenyl)ethylamine Hydrochloride] stands < 10 µM; under `COc1ccc(CC(C)(C)NCC(O)COc2cccc(C(C)(C)C)c2)cc1` (stereo not shown) [Compound 50, N-[2-Hydroxy-3-(3-t-butylphenoxy)propyl]-1,1-dimethyl-2-(4-methoxyphenyl)ethylamine Hydrochloride], < 1 µM.
As to `COc1ccc(CC(C)(C)NCC(O)COc2ccc(C(F)(F)F)cc2)cc1` (stereo not shown) [Compound 51, N-[2-Hydroxy-3-(4-trifluoromethylphenoxy)propyl]-1,1-dimethyl-2-(4-methoxyphenyl)ethylamine Hydrochloride], the IC50 is < 1 µM.
Turning to `COc1ccc(CC(C)(C)NCC(O)COc2ccccc2NC(C)=O)cc1` (stereo not shown) [Compound 52, N-[2-hydroxy-3-(2-acetamidophenoxy)propyl]-1,1-dimethyl-2(4-methoxyphenyl)ethylamine], the IC50 was > 50 µM.
Same read-out and setting: under `COc1ccc(CC(C)(C)NCCOc2ccccc2)cc1` [Compound 53, N-(2-phenoxyethyl)-1,1-dimethyl-2-(4-methoxyphenyl)ethylamine] stands > 50 µM; under `CC(C)(Cc1ccccc1)NCC(O)COc1ccc(C(C)(C)C)cc1` (stereo not shown) [Compound 54], > 50 µM; under `CC(C)(Cc1ccccc1)NCC(O)COc1cccc2ccccc12` (stereo not shown) [Compound 55, N-[2-hydroxy-3-(1-naphthoxy)propyl]-1,1-dimethyl-2-phenylethylamine], > 50 µM.
`CC(C)(Cc1ccccc1)NCC(O)COc1ccccc1` (stereo not shown) [Compound 56, N-(2-Hydroxy-3-phenoxypropyl)-1,1-dimethyl-2-phenylethylamine Hydrochloride]: the IC50 is < 50 µM.
For `COc1ccc(CC(C)(C)NCC(O)COc2ccc(NC(C)=O)cc2)cc1` (stereo not shown) [Compound 58, N-[2-hydroxy-3-(4-acetamidophenoxy)propyl]-1,1-dimethyl-2(4-methoxyphenyl)ethylamine], the concentration for half-maximal inhibition (IC50) was > 50 µM.
Turning to `COc1ccc(CC(C)(C)NCC(COc2ccccc2)OC)cc1` (stereo not shown) [Compound 59, N-(2-Methoxy-3-phenoxypropyl)-1,1-dimethyl-2-(4-methoxyphenyl)ethylamine Hydrochloride], the IC50 was < 10 µM.
Turning to `COc1ccc(CC(C)(C)NCC(O)COc2ccccc2-c2ccccc2)cc1` (stereo not shown) [Compound 60, N-[2-hydroxy-3-(2-phenylphenoxy)propyl]-1,1-dimethyl-2-(4-methoxyphenyl)ethylamine], the IC50 is > 50 µM.
The same measure, in the same setting: under `COc1ccc(CC(C)(C)NCC(O)COc2cccc(-c3ccccc3)c2)cc1` (stereo not shown) [Compound 61, N-[2-hydroxy-3-(3-phenylphenoxy)propyl]-1,1-dimethyl-2-(4-methoxyphenyl)ethylamine] stands < 10 µM; under `COc1ccc(CC(C)(C)NCC(O)COc2ccc(-c3ccccc3)cc2)cc1` (stereo not shown) [Compound 62, N-[2-Hydroxy-3-(4-phenylphenoxy)propyl]-1,1-dimethyl-2-(4-methoxyphenyl)ethylamine], > 50 µM; under `CCCCCCCCCCOCC(O)CNC(C)(C)Cc1ccc(OC)cc1` (stereo not shown) [Compound 67, N-(2-Hydroxy-3-decanoxypropyl)-1,1-dimethyl-2-(4-methoxyphenyl)ethylamine], < 1 µM.
